The source of these data is article PMC5038983 (The Journal of neuroscience : the official journal of the …, 2011).

The assay deals with T1, PME-1 (PP2A-specific methylesterase) (Homo sapiens, UniProt Q9Y570).
T1 sequence (Q9Y570 2-386): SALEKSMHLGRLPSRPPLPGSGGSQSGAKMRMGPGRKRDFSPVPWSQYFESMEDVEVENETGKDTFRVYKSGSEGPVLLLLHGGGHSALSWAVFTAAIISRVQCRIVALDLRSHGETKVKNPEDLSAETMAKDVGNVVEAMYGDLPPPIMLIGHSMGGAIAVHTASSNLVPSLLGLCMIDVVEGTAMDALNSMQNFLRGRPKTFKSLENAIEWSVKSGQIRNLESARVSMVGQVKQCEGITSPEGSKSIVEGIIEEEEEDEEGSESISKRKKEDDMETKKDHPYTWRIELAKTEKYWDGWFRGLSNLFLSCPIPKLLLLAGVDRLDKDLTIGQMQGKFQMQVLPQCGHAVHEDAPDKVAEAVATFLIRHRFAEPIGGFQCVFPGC
Format: biochemical.

Usually IC50 stands for the midpoint of a concentration-inhibition curve. Lower therefore signals greater potency.

As for `CCCCCCCCCCCCCCCCCCCC(=O)NCCc1c[nH]c2ccc(O)cc12` [EHT, eicosinoyl-5-hydroxytryptamide], 3.9 µM corresponded to half-maximal inhibition (IC50).
